Here are results for two compounds from patent publication US11752127B2, “Methods and compositions for treatment of anxiety in animals” (CANOPY GROWTH CORPORATION, priority 2019, dated 2023).

The subject of data set [1] is thunderstorm noise-induced model of anxiety. Briefly: Thunderstorm noise-induced model of anxiety after chronic (28-day) CBD administration. In kind it is in vivo, dogs. Here is the method: The present study was conducted to evaluate the potential antianxiety effects of CBD after chronic administration using a thunderstorm model of anxiety. A placebo-controlled 28-day CBD dosing, behavioral and safety study was conducted in which the anti-anxiety behavioral effects of chronic CBD were evaluated after 7 and 21 days of CBD administration. Anxiety-related behavioral assessments were conducted using a thunderstorm noise-induced model of anxiety. Four different doses of CBD isolate (1, 2, 4 and 12 mg CBD/kg dog's body weight) were administered orally, as a liquid, once a day to fasted dogs. The primary anti-anxiety measures included blood cortisol levels, heart rate, distance traveled, head movements, global anxiety and scanning behavior.

Data set [2] relates to noise-induced model of fear and anxiety. Briefly: Noise-induced (thunderstorm) model of fear and anxiety in dogs, single dose. The data set is classed as in vivo, Beagle dogs. The protocol: A Noise-Induced Model for fear and anxiety was used to assess the anxiolytic properties of a cannabidiol formulation on dog subjects. An objective of this study is to determine the anxiolytic effectiveness of an orally dosed CBD enriched cannabinoid formulation at three dose levels (25 mg/kg, 12 mg/kg, and 4 mg/kg) as compared to a placebo control in a noise-induced model of fear and anxiety.
A preliminary health screen including veterinary examinations and CBC/clinical chemistry blood work analysis was first used to select thirty-two (32) Beagle dogs for the Baseline Screening phase of this study. […] A four-arm Williams design was used, with four treatment groups of 4 animals per group. Subjects were allocated to the treatment groups (n=4) balanced for sex, serum cortisol, and behavioural (activity) response. On Days 4, 11, 18, and 25 (n=16), dogs were tested on the thunderstorm procedure after administration of one of three dose levels of test article or placebo. Anxiety was assessed by both live monitoring of specific behaviours and through post-trial monitoring of recorded video files, by continuous recording of heart rate during the test, and by analyzing serum cortisol levels after the test. Subjects were dosed once during each arm of the study, approximately 4 hours prior to the thunderstorm test. Blood was taken twice during each arm of the study including baseline phase; once for the purpose of determining resting cortisol levels, collected two days before thunderstorm procedures, and once for the purpose of determining post-thunderstorm cortisol levels as well as blood levels CBD and 7-COOH-CBD, collected 5 minutes (±2 minutes) following the test. Both blood collections were taken at about same time of day. There was a 6-day washout period between treatment days for all subjects.
On the day of testing, each group received a single dose of their assigned treatment according to Table 7 followed by a 6-day washout period prior to the next assessment Animals were dosed 4 hours (±10 minutes) prior to each thunderstorm assessment, at the same time of day on each dosing day. Subjects received either placebo (MCT oil) or CBD extract diluted to the correct concentration of either 4, 12 or 25 mg/kg with appropriate volume of MCT oil to a final volume of 4 mL for each dose. The test article was administered orally by syringe with attention to complete delivery and retention of the intended dose according to standard operating procedures. In the event that a subject vomited or regurgitated within the first 30 minutes of administration, the product was re-administered and time of re-dose was recorded. […]
The thunderstorm test was performed on Study Day −5, 4, 11, 18, and 25; this took place in the open field arena. During the 9-minute task, the first three minutes was designated as the pre-thunder interval, during which the dogs were allowed to freely explore the room in the absence of any external stimuli. During minutes 4-6 (thunder interval) a recorded thunderstorm track was played over a stereo system at approximately 105 dB. Animal behaviour was audio and video recorded for a total of 9 minutes and the following parameters assessed:
1. Distance travelled (m): the distance the animal moves within the room will be tracked and recorded in meters.
2. […] All other behaviours were considered “active” behaviours.
No stimuli were provided over the last three minutes (minutes 7-9). All behavioural parameters were measured as described for the open field test. Video files of each session were recorded to DVD and archived with the study files. […]

The nature of data set [3]: Blood CBD and 7-COOH-CBD levels pre- and post-car ride (mass spectrometry). In kind it is in vivo, Beagle dogs. Here is the method:
(§1) Anxiety behavioral data measures were recorded, as was serum cortisol levels (an anxiety/stress-related biomarker), heart rate and blood cannabidiol content. Subjects were dosed once during each arm, approximately four (4) hours prior to the car ride test. Blood samples for measurements of cortisol and CBD were taken on two occasions during each arm. The first was on day 1, a no treatment day. The second was within 10 minutes (±2 minutes) following the car ride. Both blood samples were taken as closely as possible to the same time of day. Heart rate was continuously measured during the car ride. There were seven days of washout between treatment days. For the sake of scheduling, the 16 dogs were tested in two cohorts, with eight (8) dogs tested per cohort day. The test schedule that followed is outlined in Table 2.
Blood was collected for health profiling on day −8 and 2 mL and was placed into each a potassium oxalate/sodium fluoride, SST and K2EDTA tube. Whole blood collections for the purpose of cortisol and cannabidiol analysis were taken on eight occasions. Four (4) ml blood samples were collected from a suitable vein according to standard operating procedure for baseline 1 day prior to the car and 10 minutes (±2 minutes) after each car ride for cortisol and cannabidiol analysis. Prior to the baseline sample, subjects were placed in a quiet metabolic cage for 30 minutes (±2 minutes) for a more accurate reading of cortisol at rest. Two (2) ml blood were placed into a 2 ml SST tube and allowed to set until clotted. Serum was separated by centrifugation (2800-3200 rpm for 10 minutes at room temperature) and removed into a new serum blood tube. One aliquot of serum (0.5 ml) was placed into a cryovial and stored at approximately −80° C. for future analysis as necessary. […] Samples were analysed by mass spectrometry for the presence of cannabidiols and in particular CBD.
Post-car ride CBD levels were analyzed as a function of Dose using non-parametric analysis of variance.
Pre-car ride CBD levels were analyzed as a function of previous Dose using non-parametric analysis of variance. […]

For data set [4], the system named is car ride model of fear and anxiety. Briefly: Car-ride model of fear and anxiety in dogs (10-minute car ride). In kind it is in vivo, Beagle dogs. The note with it: for Cortisol response to car ride: differed significantly from baseline. Here is the method: A Car-Ride Model for fear and anxiety was used to assess the anxiolytic properties of a cannabidiol formulation on dog subjects. One of the objectives of this study was to determine the anxiolytic effectiveness of orally dosed CBD-enriched cannabidiol formulation at three dose levels, namely at: 4 mg/kg CBD; 12 mg/kg CBD; and 25 mg/kg CBD as compared to a placebo control in a car ride model of fear and anxiety.
Enrollment into the study was based on the subject's baseline activity response to a car ride. Twenty-four (24) Beagle Dogs were screened for car-ride induced elevation of blood cortisol. The initial screening occurred over a 10-day period. Sixteen of the 24 dogs were selected to be used in the subsequent efficacy trial. The schedule of operations for the baseline screen is outlined in Table 1.
The subsequent dose-finding efficacy trial was a blinded pre-clinical trial with sixteen (16) dogs. Dogs were allocated to four treatment groups each containing four (4) dogs based on the baseline response to the car-ride model. In the car-ride model, the dogs were placed in a travel crate secured in the back of a transport vehicle. Anxiety was assessed by monitoring behavior and heart rate during the car ride, and by blood cortisol measures after the car ride. A Williams design was used in which 3 dose levels of the drug and a placebo control were evaluated, with every dog being tested on every condition. Thus, the study had four cycles: four (4) groups of four (4) dogs each, with two (2) males and two (2) females per group, were given four (4) cycles of either one of three increasing doses of a cannabidiol-enriched liquid formulation or the vehicle (medium chain triglyceride solution without cannabidiol), each in a volume of 4 mL. Actives or placebo were administered on the fourth day of each cycle, four (4) hours (±15 minutes) before exposure to a 10-minute car ride in a controlled setting. Each dosing cycle was seven (7) days, so there were seven (7) days between doses.
as §1
Treatment conditions as follows: High Dose: 25 mg/kg CBD; Medium Dose: 12 mg/kg CBD; Low Dose: 4 mg/kg CBD; Placebo control: MCT (Medium Chain Triglyceride) solution. The animals were handled and cared for as similarly as possible throughout the study. The study used a Williams design. The experimental unit were one individual dog and the number of dogs per treatment sequence was four (4), each containing two (2) males and two (2) females.
The study was a blinded pre-clinical trial carried out in a standardized environment. Sixteen (16) dogs (8 males and 8 females) were included in the study. A Williams design, in which all test subjects receive all three dosages and one placebo were used. Four (4) groups of four (4) dogs each, with two (2) males and two (2) females per group, will be given four (4) cycles of either one of three increasing doses of a Cannabidiol-enriched liquid formulation or the vehicle (medium chain triglyceride solution without cannabidiol), each in a volume of 4 mL. Actives or placebo were administered on the fourth day of each cycle, four (4) hours (±15 minutes) before exposure to a 10-minute car ride. […]

Where [5] appears, read: Phase 1, 12 mg/kg CBD oral, n=4 dogs.
[6] abbreviates: Phase 1, 25 mg/kg CBD oral, n=4 dogs.
Setting [7] is: all four phases combined, 25 mg/kg CBD oral, n=16 dogs, p=0.05.

For `C=C(C)[C@@H]1CCC(C)=C[C@H]1c1c(O)cc(CCCCC)cc1O` [CBD, cannabidiol], the “Cortisol, day 21 vs day 7” value in data set [1] (1 and 2 mg CBD/kg oral once a day) was “greater decrease in cortisol on day 21 than day 7”. Besides, the Visual scanning entry in data set [1] (Day 7, 1 mg/kg) is reported as “most reduced”; in data set [1] (day 21, 1 and 2 mg/kg), “most reduced”. Besides, the “Global Anxiety Scores during thunder-noise” value in data set [1] (after 7 and 21 days of treatment, all groups) is reported as “decreased”. Besides, in data set [1] (chronic CBD administration), the Thunderstorm-induced body movements entry is reported as “generally decreased”. Besides, the Heart rate entry in data set [1] (chronic CBD treatment 1, 2, 4, 12 mg/kg oral once a day) is on record as “not affected”. Further, the “Global Anxiety Scores during thunder-noise, group with greatest decrease” value in data set [1] (day 7, 2 mg/kg) was “greatest decreases”. Also, the Head movements result in data set [1] (day 7, two lowest CBD treatment groups (1 and 2 mg/kg)) is “decreased by day 7”; in data set [1] (day 21, all treatment groups), “decline in head movements”. The “Global Anxiety Scores during thunder-noise, groups with greatest decrease” value in data set [1] (day 21, 1, 2 and 4 mg/kg) is listed as “greatest decreases”. In addition, the Cortisol entry in data set [1] (lowest 3 doses (1, 2, 4 mg/kg) oral once a day, days 7 and 21) is on record as “decline in cortisol”. Further, in data set [1] (three lower CBD doses (1, 2, 4 mg/kg) oral once a day), the “Anti-anxiety effects (stress biomarker, body movements, visual scanning, global anxiety scores)” value is recorded as “observable anti-anxiety effects”. Besides, the “Distance travelled post-thunder (minutes 7-9), placebo vs CBD” value in data set [2] (25 mg/kg oral 4 h before test, p=0.0445, LMM with treatment and order) was “significantly larger with placebo than 25 mg/kg”. Further, the “Inactivity frequency post-thunder, placebo vs CBD” value in data set [2] (25 mg/kg oral, p=0.0245, LMM with treatment and order) is recorded as “significantly smaller with placebo than 25 mg/kg”. The “Activity during minutes 1-3 of conditioned anxiety testing” value in data set [2] (CBD 4, 12, 25 mg/kg vs placebo) is “no significant differences”. Moreover, the “Distance travelled during the 3-minute post-thunder interval (mean±SD)” value came out at 3.9±3.9 m in data set [2] (setting [5]), 5.5±4.0 m in data set [2] (setting [6]) and 3.5±3.9 m in data set [2] (setting [7]). Further, the results for the “Reduction of distance travelled during the 3-minute post-thunder interval vs placebo” value in data set [2] (setting [5]), in data set [2] (setting [6]) and in data set [2] (setting [7]) were 72%, 61% and 65%, respectively. In addition, the “Distance travelled during the 3-minute thunderstorm noise (mean±SD)” value in data set [2] (setting [6]) was 17.0±8.1 m. Further, the “Reduction of distance travelled during the 3-minute thunderstorm noise vs placebo” value in data set [2] (setting [6]) is given as 29%. Also, the “Inactivity, effect of dose” value in data set [2] (repeated measures ANOVA, pre-thunder, thunder, post-thunder, p value for dose effect 0.762) is “no other significant main effects or interactions”. In addition, the “Pre-car ride CBD levels as a function of previous dose” value in data set [3] (7 days after previous dose, repeated measures ANOVA, 0.02 level) is given as “Previous dose effect was significant”. Further, the “Post-car ride CBD levels as a function of dose” value in data set [3] (oral 4, 12, 25 mg/kg CBD or placebo 4 h before car ride, non-parametric analysis of variance, p=0.0000) is listed as “highly significant dose effect”. For the same compound, the “Dogs that lay down during the 10-minute car ride” value in data set [4] (Phase 1, 2 of 4 dogs at each of 4, 12, or 25 mg/kg CBD oral, placebo 0 of 4) is 50%. For the same compound, the “Number of dogs across the CBD treatments who lay down during the car ride” value in data set [4] (Phase 1, CBD 4, 12, 25 mg/kg combined, placebo none of 4) is 6 of 12 dogs. For the same compound, the “Mean heart rate, effect of treatment” value in data set [4] (baseline, placebo, 4, 12 and 25 mg/kg oral, pre-test, min 1-5, min 5-10 of car ride, repeated measures ANOVA) was “no other significant main effects or interactions”. In addition, in data set [4] (female dogs, CBD 4, 12, 25 mg/kg oral 4 h before car ride (FIG. 11)), the “Post-car ride cortisol levels in female dogs” value was “decrease in cortisol levels”. Moreover, the “Cortisol response to car ride” value was “more effective in reducing the cortisol response than the placebo and low dose treatments” in data set [4] (high dose 25 mg/kg CBD oral); “more effective in reducing the cortisol response than the placebo and low dose treatments” in data set [4] (medium dose 12 mg/kg CBD oral).
For the compound `C=C(C)[C@@H]1CCC(C(=O)O)=C[C@H]1c1c(O)cc(CCCCC)cc1O` [7-COOH-CBD], in data set [3] (post-car ride, repeated measures ANOVA), the “7-COOH-CBD levels across the 4 dose levels” value is given as “highly significant effect of dose”.
